{"source": "paper PMC11109052", "about": "“Metabolism characterization and toxicity of N-hydap, a marine candidate drug for lung cancer therapy by LC–MS method” (Natural Products and Bioprospecting, 2024)", "key": {"Ugt1a6a": {"test_system": "Ugt1a6a", "assay": "Real-time PCR mRNA level after 7 days gavage: Ugt1a6a (human homolog UGT1A6)", "format": "in vivo, mice", "parameters": "key to UGT1A6 mNA expression: ↑: up-regulation; ↓: down-regulation; –: no change", "experimental": "Mice were randomly divided into four groups, with eight animals in each group. The mice received oral pretreatment with N-hydap for 7 days at doses of 2, 5, and 10 mg/kg/day, which were considered as the low dose, medium dose, and high dose, respectively. Correspondingly, the control group received PBS. On the 8th day, the liver and kidneys were removed, and organs from eight mice per group were combined to prepare MLMs and MKMs using the detailed procedures above. Subsequently, we determined the activity of CYP and UGT enzymes by specific substrate metabolized with MLMs (0.5 mg/mL) and MKMs (0.2 mg/mL) in vitro. Specifically, the following selective substrates were used for the respective enzymes: PH (1 μM) for CYP1A2, DIC (1 μM) for CYP2C9, MP (90 μM) for CYP2C19, DM (1 μM) for CYP2D6, CZX (10 μM) for CYP2E1, Tes (1 μM) for CYP3A4, SN38 (1 μM) for UGT1A1, CACD (100 μM) for UGT1A3, Sero (20 μM) for UGT1A6, and Prop (1 μM) for UGT1A9. All substrates were dissolved in methanol or DMSO. The incubation procedure was carried out as mentioned above, and the reaction was terminated with VER (20 ng/mL) in ESI+ mode and CLP (200 ng/mL) in ESI− mode. In the ex vivo experiments, the activity of enzymes was measured by quantifying the production of various metabolites (nM/mg protein/min). The metabolites and their corresponding enzymes are as follows: APAP from PH, 4-OH-DIC from DIC, 4-OH-MP from MP, DXO from DM, 6-OH-CZX from CZX, 6-OH-Tes from Tes, SN38-G from SN38, CACD-G from CACD, Sero-G from Sero, Prop-G from Prop. The measurements were performed using multiple reaction monitoring (MRM) transitions, which are specific mass spectrometry transitions used for quantification. […]\nTotal RNA from liver and kidney samples taken after 7 days of N-hydap gavage was extracted using the Animal Total RNA Isolation Kit (Foregene, Chengdu, Sichuan, China) following the manufacturer’s instructions. The concentrations of total RNA were determined by a nucleic acid concentration tester at 260/280 nm. […]"}, "[1]": {"assay": "Stability in tissue homogenate", "format": "in vitro ADME", "experimental": "The stability of the KPI solution was examined after storage at 4 °C for 24 h and incubation at 37 °C for 4 h, which was conducted using the QC samples at three concentrations (five samples for each concentration). Stability in plasma and tissue homogenate was assessed by testing samples stored at both 4 °C and room temperature for 24 h."}, "HLMs": {"test_system": "HLMs", "assay": "Kinetics of N-hydap glucuronidation in HLMs", "format": "in vitro ADME, human", "details": "HLM", "experimental": "Various microsomes including HLMs, HKMs, HIMs, RLMs, RKMs, MLMs and MKMs were involved in CYP and UGT reactions of N-hydap. A typical CYP incubation mixture included 0.5 mg/mL microsomes protein, 3.3 mM glucose-6-phosphate, 3.3 mM MgCl2, 0.4 U/mL glucose-6-phosphate dehydrogenase, and N-hydap (1, 2.5, or 10 μM) in the 50 mM potassium phosphate buffer (KPI, pH 7.4). The incubation mixture was preincubated at 37 °C for 5 min, and the reaction was started by adding NADP to form a NADPH-regenerating system. Simultaneously, the classic UGT reaction system consisted of 50 mM KPI, 5 mM MgCl2, 0.5 mg/mL microsomes, 0.125 mg/mL alamethicin, and 5.25 mg/mL saccharolactone. The reaction was initiated after supplying UDPGA. The CYP and UGT mixtures were incubated at 37 °C in a shaking water bath (80 rpm) for 1.5 h to enhance metabolite formation. To terminate the reaction, an ice-cold solution of Tes (50 ng/mL, dissolved in methanol and used as an internal standard) was added to half of the mixture volume. […]\nThe substrate concentrations used for HLMs were 0.05, 0.5, 2, 2.5, 5, 10, 25, 50, and 100 μM. […] The rates of N-hydap-G by enzymes were expressed as nmol/mg/min, representing the amount of metabolites formed per minute per milligram of protein. Kinetic parameters were determined by analyzing the Eadie–Hofstee plots. […]"}, "CYP2D6": {"test_system": "CYP2D6", "assay": "DME activity ex vivo in MLMs and MKMs: CYP2D6 (DXO from DM)", "parameters": "species or system mice; key to CYP2D6 Enzymatic activity: ↑: up-regulation; ↓: down-regulation; –: no change", "experimental": "(§1) Mice were randomly divided into four groups, with eight animals in each group. The mice received oral pretreatment with N-hydap for 7 days at doses of 2, 5, and 10 mg/kg/day, which were considered as the low dose, medium dose, and high dose, respectively. Correspondingly, the control group received PBS. On the 8th day, the liver and kidneys were removed, and organs from eight mice per group were combined to prepare MLMs and MKMs using the detailed procedures above. Subsequently, we determined the activity of CYP and UGT enzymes by specific substrate metabolized with MLMs (0.5 mg/mL) and MKMs (0.2 mg/mL) in vitro. Specifically, the following selective substrates were used for the respective enzymes: PH (1 μM) for CYP1A2, DIC (1 μM) for CYP2C9, MP (90 μM) for CYP2C19, DM (1 μM) for CYP2D6, CZX (10 μM) for CYP2E1, Tes (1 μM) for CYP3A4, SN38 (1 μM) for UGT1A1, CACD (100 μM) for UGT1A3, Sero (20 μM) for UGT1A6, and Prop (1 μM) for UGT1A9. All substrates were dissolved in methanol or DMSO. The incubation procedure was carried out as mentioned above, and the reaction was terminated with VER (20 ng/mL) in ESI+ mode and CLP (200 ng/mL) in ESI− mode. In the ex vivo experiments, the activity of enzymes was measured by quantifying the production of various metabolites (nM/mg protein/min). The metabolites and their corresponding enzymes are as follows: APAP from PH, 4-OH-DIC from DIC, 4-OH-MP from MP, DXO from DM, 6-OH-CZX from CZX, 6-OH-Tes from Tes, SN38-G from SN38, CACD-G from CACD, Sero-G from Sero, Prop-G from Prop. The measurements were performed using multiple reaction monitoring (MRM) transitions, which are specific mass spectrometry transitions used for quantification. The optimized parameters for each metabolite, such as declustering potential and collision energy, were described in Supplementary Table 1. All experiments were conducted in triplicate, to ensure accuracy and reproducibility."}, "Ugt1a1": {"test_system": "Ugt1a1", "assay": "DME activity ex vivo in MLMs and MKMs: UGT1A1 (SN38-G from SN38)", "parameters": "species or system mice; key to UGT1A1 Enzymatic activity: ↑: up-regulation; ↓: down-regulation; –: no change", "experimental": "as §1"}}}
{"smiles": "CC1CCC2C(C=CC(C)C2C(=O)c2c(O)c(C3(O)CCC(O)C4OC43)cn(O)c2=O)C1", "note": "(centres unmarked) [N-hydap, N-Hydroxyapiosporamide]", "values": [{"measurement": "UGT1A6 mNA expression", "setting": "Ugt1a6a; Kidney", "result": "↑"}, {"measurement": "UGT1A6 mNA expression", "setting": "Ugt1a6a; Liver", "result": "↑"}, {"measurement": "mRNA levels of Ugt1a6a", "setting": "Ugt1a6a; mice, 2, 5, 10 mg/kg p.o. 7 days, liver and kidneys", "result": "modest increase"}, {"measurement": "stability, Accuracy (Bias, %)", "setting": "[1]; 60 nM, 4℃ for 24h", "result": 102.62, "unit": "%"}, {"measurement": "stability, Accuracy (Bias, %)", "setting": "[1]; 60 nM, room temperature for 24h", "result": 103.17, "unit": "%"}, {"measurement": "stability, Accuracy (Bias, %)", "setting": "[1]; 150 nM, 4℃ for 24h", "result": 103.40, "unit": "%"}, {"measurement": "stability, Accuracy (Bias, %)", "setting": "[1]; 150 nM, room temperature for 24h", "result": 99.13, "unit": "%"}, {"measurement": "stability, Accuracy (Bias, %)", "setting": "[1]; 500 nM, 4℃ for 24h", "result": 105.16, "unit": "%"}, {"measurement": "stability, Accuracy (Bias, %)", "setting": "[1]; 500 nM, room temperature for 24h", "result": 93.38, "unit": "%"}, {"measurement": "Km", "setting": "HLMs", "result": 116, "unit": "µM"}, {"measurement": "CYP2D6 Enzymatic activity", "setting": "CYP2D6; Kidney", "result": "↑"}, {"measurement": "CYP2D6 Enzymatic activity", "setting": "CYP2D6; Liver", "result": "↓"}, {"measurement": "CYP2D6 inhibitor, experimental results", "setting": "CYP2D6; Table 4 experimental column", "result": "Inhibition in the liver"}, {"measurement": "reduction of formation rate of DXO vs control", "setting": "CYP2D6; liver microsomes of mice pretreated 7 days p.o.", "result": 54, "unit": "%"}, {"measurement": "UGT1A1 Enzymatic activity", "setting": "Ugt1a1; Kidney", "result": "–"}, {"measurement": "UGT1A1 Enzymatic activity", "setting": "Ugt1a1; Liver", "result": "↑"}, {"measurement": "elevation of formation rate of SN38-G", "setting": "Ugt1a1; MLMs, range stated jointly for APAP, SN38-G, 6-OH-Tes and CDCA-G", "result": "12%-331%"}]}
